Assay results taken from the NIST ThermoML archive (doi:10.1021/je2007764).

Experiment: xn = mol fraction of the nth substance listed
Conditions: Fluid (supercritical or subcritical phases), Buoyancy - hydrostatic balance with magnetic suspension - one sinker

[C-]#[O+] [carbon monoxide] + N#N
mass density [kg/m3]
Conditions | x1 = 0.04999 | x1 = 0.1002
324.98 K, 9998.7 kPa | – | 101.905
324.98 K, 10007 kPa | 101.939 | –
324.98 K, 10997 kPa | 111.619 | –
324.98 K, 11997 kPa | – | 121.32
324.98 K, 12000 kPa | 121.293 | –
324.98 K, 12999 kPa | 130.817 | –
324.98 K, 13996 kPa | – | 140.254
324.98 K, 15957 kPa | 158.239 | –
324.98 K, 15995 kPa | – | 158.639
324.98 K, 17995 kPa | 176.379 | –
324.98 K, 17996 kPa | – | 176.463
324.98 K, 19931 kPa | 193.033 | –
324.98 K, 19948 kPa | – | 193.262
324.99 K, 14116 kPa | 141.303 | –
349.96 K, 991.96 kPa | – | 9.538
349.96 K, 2999.2 kPa | – | 28.731
349.96 K, 4997.9 kPa | – | 47.663
349.96 K, 6997.9 kPa | – | 66.355
349.96 K, 8997.6 kPa | – | 84.725
349.96 K, 10998 kPa | – | 102.742
349.96 K, 12999 kPa | – | 120.335
349.96 K, 14996 kPa | – | 137.446
349.96 K, 16994 kPa | – | 154.09
349.96 K, 18214 kPa | – | 164
349.97 K, 991.18 kPa | 9.53 | –
349.97 K, 993.39 kPa | – | 9.551
349.97 K, 1959 kPa | 18.808 | –
349.97 K, 1978.8 kPa | – | 18.999
349.97 K, 3922.5 kPa | – | 37.508
349.97 K, 4004.8 kPa | 38.283 | –
349.97 K, 5997.7 kPa | – | 57.048
349.97 K, 5998.2 kPa | 57.037 | –
349.97 K, 7998.9 kPa | – | 75.601
349.97 K, 8018.6 kPa | 75.757 | –
349.97 K, 9998.3 kPa | – | 93.794
349.97 K, 10022 kPa | 93.976 | –
349.97 K, 11997 kPa | – | 111.586
349.97 K, 12018 kPa | 111.731 | –
349.97 K, 13995 kPa | – | 128.938
349.97 K, 13997 kPa | 128.911 | –
349.97 K, 15994 kPa | 145.784 | 145.829
349.97 K, 17992 kPa | 162.172 | 162.217
349.97 K, 19655 kPa | 175.42 | –
349.97 K, 19959 kPa | – | 177.859
374.95 K, 1995 kPa | – | 17.848
374.95 K, 2998.2 kPa | – | 26.743
374.95 K, 4980.9 kPa | – | 44.17
374.95 K, 6997.6 kPa | – | 61.627
374.95 K, 8997.4 kPa | – | 78.624
374.95 K, 10995 kPa | – | 95.265
374.95 K, 12994 kPa | – | 111.524
374.95 K, 15016 kPa | – | 127.569
374.95 K, 16990 kPa | – | 142.823
374.95 K, 19967 kPa | – | 165.012
374.96 K, 991.14 kPa | 8.887 | –
374.96 K, 993.41 kPa | – | 8.908
374.96 K, 1989.3 kPa | 17.794 | –
374.96 K, 3998.5 kPa | 35.556 | –
374.96 K, 4004.8 kPa | – | 35.621
374.96 K, 5997.9 kPa | 52.996 | –
374.96 K, 5999 kPa | – | 53.019
374.96 K, 7996.5 kPa | 70.138 | –
374.96 K, 8024.2 kPa | – | 70.391
374.96 K, 9996 kPa | 86.957 | –
374.96 K, 9997.9 kPa | – | 86.999
374.96 K, 11988 kPa | – | 103.381
374.96 K, 11996 kPa | 103.411 | –
374.96 K, 13993 kPa | – | 119.504
374.96 K, 13995 kPa | 119.477 | –
374.96 K, 15990 kPa | 135.101 | 135.151
374.96 K, 17987 kPa | – | 150.362
374.96 K, 17988 kPa | 150.312 | –
374.96 K, 18988 kPa | – | 157.82
374.96 K, 19817 kPa | 163.859 | –
374.96 K, 19971 kPa | – | 165.047
400.02 K, 984.4 kPa | – | 8.268
400.02 K, 997.16 kPa | – | 8.375
400.02 K, 1934.5 kPa | 16.2 | –
400.02 K, 1975.5 kPa | – | 16.545
400.02 K, 2994.3 kPa | – | 24.985
400.02 K, 3986.3 kPa | 33.151 | –
400.02 K, 3997.3 kPa | – | 33.254
400.02 K, 4997.1 kPa | – | 41.415
400.02 K, 5996.1 kPa | – | 49.523
400.02 K, 5998 kPa | 49.518 | –
400.02 K, 7005.5 kPa | – | 57.622
400.02 K, 7994.6 kPa | – | 65.495
400.02 K, 7996.6 kPa | 65.491 | –
400.02 K, 8987 kPa | – | 73.307
400.02 K, 9895.5 kPa | – | 80.402
400.02 K, 9973.2 kPa | 80.982 | –
400.02 K, 11025 kPa | – | 89.118
400.02 K, 11992 kPa | 96.459 | –
400.02 K, 11994 kPa | – | 96.505
400.02 K, 12991 kPa | – | 104.017
400.02 K, 13990 kPa | 111.428 | 111.464
400.02 K, 14988 kPa | – | 118.8
400.02 K, 15986 kPa | 126.014 | 126.048
400.02 K, 16227 kPa | – | 127.785
400.02 K, 17982 kPa | – | 140.257
400.02 K, 17985 kPa | 140.246 | –
400.02 K, 19027 kPa | 147.507 | –
400.03 K, 18458 kPa | – | 143.591
